Test system: HIV with mutations in the HIV protease sequence
Assay: Phenotypic fold resistance to protease inhibitors, protease mutations 84A/84L/84C/54M/54L/54V in a background (Examples 8-13)
Type: cell-based, HIV-1
Experimental: As is the case with the genotyping assays, the recombinant virus assay starts with the amplification of viral target sequences by means of PCR. The amplicons are incorporated into a proviral laboratory clone with sequences homologous to those present in the amplicon deleted. This generates a stock of chimeric viruses. The viruses are tested for their ability to grow in the presence of different concentrations of drugs. Results are obtained by calculating IC50 values for each inhibitor and by reporting the results as IC50 values, expressed in μM concentrations, or by computing the ratio of the IC50 values found for the chimeric virus to the IC50 values found for a wild type susceptible laboratory virus tested in parallel. In the latter case, resistance is expressed as “fold-resistance” compared to a wild-type susceptible HIV-1 strain. In order to meet the need for high-volume testing and a short turn-around time for an individual test, the latest generation of phenotyping assays has undergone further modifications. The use of reporter gene systems for susceptibility testing allows the implementation of laboratory automation and standardization. See Pauwels, et al., J. Virol. Methods 20, 309-321 (1998); Paulous, S., et al., International Workshop on HIV Drug Resistance, Treatment Strategies and Eradication, St. Petersburg, Fla., USA. Abstr. 46 (1997); and Deeks, S. G., et al., 2nd International Workshop on HIV Drug Resistance and Treatment Strategies, Lake Maggiore, Italy. Abstr. 53 (1998).
The ANTIVIROGRAM® assay (Virco) (WO 97/27480) is based on homologous recombination of patient derived HIV-1 gag/PR/RT sequences into a proviral HIV-1 clone correspondingly deleted for the gag/PR/RT sequences. See Pauwels, et al., J. Virol. Methods 20, 309-321 (1998). A similar assay (Phenosense ViroLogic) is based on enzymatic ligation of patient-derived PR/RT sequences into a correspondingly deleted proviral vector carrying an indicator gene, luciferase, inserted in the deleted HIV-1 envelope gene. See Deeks, S. G., et al., 2nd International Workshop on HIV Drug Resistance and Treatment Strategies, Lake Maggiore, Italy. Abstr. 53 (1998). Hertogs et al. Antimicrob. Agents Chemother. 44(3) 568-573 (2000) the disclosures of which are herein incorporated by reference.
The methods of monitoring HIV-1 drug resistance, may also be used in combination with phenotypic drug resistance testing of viral isolates. For example, in one embodiment, a phenotypic test is utilized that is based upon the construction of chimeric HIV-1 strains composed of the protease (PR) and reverse transcriptase (RT) gene sequences which are isolated and amplified from the patient viral RNA. These strains may subsequently be recombined inside CD4+ T cells with a standard laboratory isogenic (HXB2) HIV-1 DNA construct from which the PR/RT gene sequences were deleted. The recombinant strains may then be grown in the presence of the above-mentioned antiviral drugs and the susceptibility of the viral isolates may be expressed as fold-change value of the IC50 of the drug on the patient isolates over the IC50 of the drug on a wild-type laboratory reference strain.

CC(C)c1nc(CN(C)C(=O)N[C@H](C(=O)N[C@@H](Cc2ccccc2)C[C@H](O)[C@H](Cc2ccccc2)NC(=O)OCc2cncs2)C(C)C)cs1 [Ritonavir, ritonavir]
Fold change in IC50 (Table 12, V055199, genotype 10I + 33F + 54M + 90M): 18.4 fold | Fold change in IC50 (Table 13, V19263, genotype 77I): 0.4 fold | Fold change in IC50 (Table 13, V20160, genotype WT): 0.6 fold | Fold change in IC50 (Table 13, V021667, genotype 10I): 1.2 fold | Fold change in IC50 (Table 13, V030496, genotype 10I + 77I): 0.5 fold | Fold change in IC50 (Table 13, V048868, genotype 10I + 54L + 71V + 77I + 90M): 9.7 fold | Fold change in IC50 (Table 13, V048874, genotype 10I + 33F + 54L + 71V + 77I + 90M): 21.3 fold | Fold change in IC50 (Table 13, V048875, genotype 10I + 33F + 54L + 71V + 77I + 90M): 25.1 fold | Fold change in IC50 (Table 13, V048877, genotype 10I + 33F + 77I + 90M): 20.5 fold | Fold change in IC50 (Table 13, V048880, genotype 10I + 33F + 77I + 90M): 3.6 fold | Fold change in IC50 (Table 13, V052940, genotype 71V): 0.4 fold | Fold change in IC50 (Table 13, V052942, genotype 10I + 71V): 0.6 fold | Fold change in IC50 (Table 13, V052943, genotype 10I + 90M): 1.8 fold | Fold change in IC50 (Table 13, V052944, genotype 10I + 90M): 1.5 fold | Fold change in IC50 (Table 13, V052945, genotype 77I + 90M): 1.9 fold | Fold change in IC50 (Table 13, V052946, genotype 71V + 90M): 2.0 fold | Fold change in IC50 (Table 13, V052947, genotype 10I + 77I + 90M): 6.9 fold | Fold change in IC50 (Table 13, V052948, genotype 10I + 71V + 90M): 10.5 fold | Fold change in IC50 (Table 13, V052949, genotype 10I + 71V + 77I + 90M): 2.3 fold | Fold change in IC50 (Table 13, V052950, genotype 33F): 1.5 fold | Fold change in IC50 (Table 13, V052951, genotype 33F + 77I): 0.3 fold | Fold change in IC50 (Table 13, V052953, genotype 10I + 33F + 77I): 1.1 fold | Fold change in IC50 (Table 13, V052954, genotype 33F + 77I + 90M): 2.2 fold | Fold change in IC50 (Table 13, V052955, genotype 33F + 71V + 90M): 77.9 fold | Fold change in IC50 (Table 13, V052968, genotype 10L/I + 33F/L + 54L + 77I): 4.7 fold | Fold change in IC50 (Table 13, V052969, genotype 10I + 33F + 54L + 90M): 4.8 fold | Fold change in IC50 (Table 13, V052970, genotype 54L): 2.0 fold | Fold change in IC50 (Table 13, V052971, genotype 10I + 54L): 1.5 fold | Fold change in IC50 (Table 13, V052972, genotype 54L + 77I): 2.4 fold | Fold change in IC50 (Table 13, V052973, genotype 10I + 54L + 77I): 1.4 fold | Fold change in IC50 (Table 13, V052974, genotype 10I + 54L + 90M): 3.6 fold | Fold change in IC50 (Table 13, V052975, genotype 10I + 54L + 71V + 90M): 30.5 fold | Fold change in IC50 (Table 13, V052976, genotype 10I + 54L + 71V + 77I + 90M): 6.5 fold | Fold change in IC50 (Table 13, V053832, genotype 10I + 33F): 2.9 fold | Fold change in IC50 (Table 13, V053854, genotype 54L + 71V): 2.3 fold | Fold change in IC50 (Virco ID 214846, genotype 10I + 33F + 54V + 71V + 77I + 90M, vs mean IC50 of wild type laboratory HIV strain): 57.6 fold | Fold change in IC50 (Virco ID V021667, genotype 10I, vs mean IC50 of wild type laboratory HIV strain): 1.2 fold | Fold change in IC50 (Virco ID V030496, genotype 10I + 77I, vs mean IC50 of wild type laboratory HIV strain): 0.5 fold | Fold change in IC50 (Virco ID V048876, genotype 33F + 54V + 77I + 90M, vs mean IC50 of wild type laboratory HIV strain): 5.6 fold | Fold change in IC50 (Virco ID V048877, genotype 10I + 33F + 77I + 90M, vs mean IC50 of wild type laboratory HIV strain): 20.5 fold | Fold change in IC50 (Virco ID V048880, genotype 10I + 33F + 77I + 90M, vs mean IC50 of wild type laboratory HIV strain): 3.6 fold | Fold change in IC50 (Virco ID V052940, genotype 71V, vs mean IC50 of wild type laboratory HIV strain): 0.4 fold | Fold change in IC50 (Virco ID V052942, genotype 10I + 71V, vs mean IC50 of wild type laboratory HIV strain): 0.6 fold | Fold change in IC50 (Virco ID V052943, genotype 10I + 90M, vs mean IC50 of wild type laboratory HIV strain): 1.8 fold | Fold change in IC50 (Virco ID V052944, genotype 10I + 90M, vs mean IC50 of wild type laboratory HIV strain): 1.5 fold | Fold change in IC50 (Virco ID V052946, genotype 71V + 90M, vs mean IC50 of wild type laboratory HIV strain): 2.0 fold | Fold change in IC50 (Virco ID V052947, genotype 10I + 77I + 90M, vs mean IC50 of wild type laboratory HIV strain): 6.9 fold | Fold change in IC50 (Virco ID V052948, genotype 10I + 71V + 90M, vs mean IC50 of wild type laboratory HIV strain): 10.5 fold | Fold change in IC50 (Virco ID V052949, genotype 10I + 71V + 77I + 90M, vs mean IC50 of wild type laboratory HIV strain): 2.3 fold | Fold change in IC50 (Virco ID V052950, genotype 33F, vs mean IC50 of wild type laboratory HIV strain): 1.5 fold | Fold change in IC50 (Virco ID V052951, genotype 33F + 77I, vs mean IC50 of wild type laboratory HIV strain): 0.3 fold | Fold change in IC50 (Virco ID V052953, genotype 10I + 33F + 77I, vs mean IC50 of wild type laboratory HIV strain): 1.1 fold | Fold change in IC50 (Virco ID V052954, genotype 33F + 77I + 90M, vs mean IC50 of wild type laboratory HIV strain): 2.2 fold | Fold change in IC50 (Virco ID V052955, genotype 33F + 71V + 90M, vs mean IC50 of wild type laboratory HIV strain): 77.9 fold | Fold change in IC50 (Virco ID V052957, genotype 10I + 33F + 54V + 90M, vs mean IC50 of wild type laboratory HIV strain): 13.9 fold | Fold change in IC50 (Virco ID V052958, genotype 10I + 33F + 54V + 77I + 90M, vs mean IC50 of wild type laboratory HIV strain): 16.6 fold | Fold change in IC50 (Virco ID V052959, genotype 10I + 33F + 54V + 77I + 90M, vs mean IC50 of wild type laboratory HIV strain): 28.5 fold | Fold change in IC50 (Virco ID V052960, genotype 10I + 33F + 54V + 71V + 90M, vs mean IC50 of wild type laboratory HIV strain): 70.9 fold | Fold change in IC50 (Virco ID V052961, genotype 54V, vs mean IC50 of wild type laboratory HIV strain): 1.2 fold | Fold change in IC50 (Virco ID V052962, genotype 10I + 54V, vs mean IC50 of wild type laboratory HIV strain): 1.0 fold | Fold change in IC50 (Virco ID V052963, genotype 54V + 77I + 90M, vs mean IC50 of wild type laboratory HIV strain): 2.0 fold | Fold change in IC50 (Virco ID V052964, genotype 54V + 71V + 90M, vs mean IC50 of wild type laboratory HIV strain): 7.1 fold | Fold change in IC50 (Virco ID V052965, genotype 10I + 54V + 77I + 90M, vs mean IC50 of wild type laboratory HIV strain): 12.5 fold | Fold change in IC50 (Virco ID V052966, genotype 10I + 54V + 71V + 90M, vs mean IC50 of wild type laboratory HIV strain): 44.5 fold | Fold change in IC50 (Virco ID V052967, genotype 10I + 54V + 71V + 77I + 90M, vs mean IC50 of wild type laboratory HIV strain): 0.7 fold | Fold change in IC50 (Virco ID V053358, genotype 33F + 54V + 77I + 90M, vs mean IC50 of wild type laboratory HIV strain): 4.9 fold | Fold change in IC50 (Virco ID V053831, genotype 33F + 54V, vs mean IC50 of wild type laboratory HIV strain): 129.7 fold | Fold change in IC50 (Virco ID V053832, genotype 10I + 33F, vs mean IC50 of wild type laboratory HIV strain): 2.9 fold
